One data set is described as follows: human serum. The following applies: 37°C, up to 2 h.
Another data set is described as follows: Stability in human serum. The class given is in vitro ADME. The following applies: 37°C. On the procedure: The stability of CaIX-P1 was investigated in human serum. The peptide was incubated at 37°C in human serum at a concentration of 10^−4 mol/L. At time points varying from 5 min to 2 h aliquots were taken, mixed with equal volume acetonitrile to precipitate serum proteins and centrifuged for 5 min at 13,000 rpm. The supernatant was analyzed with HPLC on a Chromolith Performance RP-18e 100×4.6 mm column (Merck) using a linear gradient of water and acetonitrile containing 0.1% trifluoroacetic acid. Samples of CaIX-P1 and its fragments in human serum were isolated and analyzed by MALDI-TOF mass spectrometry.

Data set [1] addresses T1, recombinant extracellular domain of human CAIX (Homo sapiens, UniProt Q16790).
T1 construct: Fc (Fc gamma, from pSEC-EGP-2-Fcγ vector) (C); made in house; host or cells: Flp-In-293 human embryonic kidney cells (secreted into medium)
The data set is described as follows: Binding of 125I-labeled CaIX-P1 on immobilized recombinant extracellular domain of CAIX. The following applies: co-incubation of ^125I-CaIX-P1 with unlabeled CaIX-P1 at 10^−4 M, p<0.05, n = 3; read-out: Binding inhibition of the radioligand. The protocol: Binding of ^125I-labeled CaIX-P1 was performed on immobilized recombinant extracellular domain of human CAIX and of EGFR. For immobilization the target proteins CAIX and EGFR were incubated at a concentration of 50 nM in 24-well plates for 24 h. Thereafter, the plates were washed three times with 500 µl PBS pH 7.4. Incubation with ^125I-CaIX-P1 was performed in 500 µl PBS pH 7.4 for 30 min. After incubation the plates were washed three times with 500 µl ice cold PBS pH 7.4. The target proteins were degraded with 500 µl NaOH 0.3 mol/L and the radioactivity was counted with a γ-counter. Bound radioactivity was calculated as percentage applied dose. In order to evaluate the specificity of the radioligand binding, competition experiments with the unlabeled CaIX-P1 peptide at a concentration of 10^−4 M were carried out.

The test system of data set [2] is CAIX positive SKRC 52 cells. The class given is cell-based, human. The following applies: 24 h. On the procedure:
For binding experiments 3×10^5 CAIX positive SKRC 52 cells were seeded into 6-well plates and cultivated in 3 mL of incubation medium at 37°C for 24 h. After cell blocking with RPMI 1640 (without FCS) containing 1% BSA, the medium was replaced with 1 mL of fresh medium (without FCS) containing 0.5–1.5×10^6 cpm of ^125I-labeled peptide and incubation was performed for time periods varying from 10 min to 6 h at 37°C. To determine specific versus nonspecific binding, the cells were incubated with the unlabeled CaIX-P1 peptide at concentrations varying from 10^−4 to 10^−10 mol/L. Octreotide was used as negative control competitor. After incubation the medium was removed and the cells were washed three times with 1 mL ice cold PBS in order to remove the unbound radiolabeled peptide. Subsequently, the cells were lysed with 0.5 mL NaOH 0.3 mol/L and the radioactivity was measured with a γ-counter. Bound radioactivity was calculated as percentage applied dose per 10^6 cells. Binding experiments were also performed on HCT 116 cells and on human umbilical vein endothelial cells (HUVEC) at various cell densities. CAIX negative CaKi-2 cells were used as negative control.

No end group written: not given here.

For the sequence YNTNHVPLSPKY, the cleaved bond result in the data set “human serum” is given as “tyrosine1-N2, major, 10 min”.
As usually defined, the half-life is how long it takes for the measured level to halve. A low value points to fast loss. By inhibition is commonly meant the change of the read-out against control, counted positive when it falls. Usually IC50 stands for the concentration needed to halve the response being measured. The low end stands for greater potency, the high end for weaker potency. In the case of YNTNHVPLSPKY [CaIX-P1], the “Main product of serum degradation” value in the data set “Stability in human serum” (10^−4 mol/L, appeared after 10 min, HPLC isolation and MALDI-TOF mass spectrometry) is “lacking the N-terminal tyrosine”. The sequence further displayed a half-life in the data set “Stability in human serum” (peptide 10^−4 mol/L, aliquots 5 min to 2 h, acetonitrile precipitation, HPLC) of approximately 25 min. Besides, the inhibition at 100 µM in data set [1] was 93%. In addition, in data set [2], the IC50 came to 1.75 ± 0.49 µM.

Values taken from paper PMC3013143 (PLoS ONE, 2010).
